Measurements: patent publication US11306117B2, “Whitening composition containing novel quercetin-based compound” (AMOREPACIFIC CORPORATION, priority 2017, dated 2022)

Assays:
Mel-Ab cell line = experiment: Inhibition of melanogenesis in Mel-Ab cells (method of Dooley); type: cell-based, C57BL/6; conditions: melanin by absorbance at 400 nm after 5 days
Procedure: The effects of New Materials 31 and 32 on inhibiting melanogenesis were compared with Kojic acids which have been known to have an excellent skin whitening effect, and measured.
Specifically, the degree of melanogenesis in cells was measured by a method of Dooley. As the cell line, Mel-Ab cell line (Falcon, U.S.A.) derived from a skin pigment of C57BL/6 was used. Culturing was made under the condition of 37° C., 5% CO2 of a DMEM medium containing 10% placenta serum, 100 nM 12-O-tetradecanoylphorbol-13-acetate, and 1 nM Cholera Toxin. The test materials were treated in the manner where the cultured Mel-Ab cell was isolated with 0.25% trypsin-EDTA, and inoculated again with the same number (1×10^5 cells/well) in the 24-well plate, and then the medium was replaced with a medium containing the test materials for two days from the second day. As the test materials, 5 ppm, 10 ppm, 25 ppm and 50 ppm of New Materials 31 and 32, 25 ppm, 50 ppm and 100 ppm of Kojic acids and DMSO (control) were used. After 5 days, the test materials were treated with 1N-NaOH to dissolve melanin contained in the cell, and the amount of melanin was measured by measuring absorbance at 400 nm. The concentration (IC50) of the material necessary for reducing melanogenesis of melanocyte by half was calculated, and the results are shown in following Table 4.

mushroom tyrosinase = experiment: Inhibition of tyrosinase activity; type: biochemical; conditions: L-tyrosine, 37° C., 20 minutes, absorbance 490 nm
Procedure: The effect of New Materials 31 and 32 on inhibiting tyrosinase activity was evaluated.
Specifically, tyrosinase and tyrosine derived from mushroom were obtained from Sigma Chemical. Together with 150 μl of 0.1 M phosphate buffer (pH 6.5), 8 μl of mushroom tyrosinase (2,100 unit/ml) and 0.05 M concentration of L-tyrosine, arbutin and New Materials 31 and 32 were treated at the concentrations of following Table 3, respectively. The tyrosinase activity was evaluated by performing the enzyme reaction at 37° C. for 20 minutes and then measuring absorbance at 490 nm using a microplate reader (Bio-Rad 3550, Richmond, Calif., U.S.A.).

Structure (SMILES) | IC50 inhibiting melanogenesis (Mel-Ab cell line) [ppm] | IC50 inhibiting tyrosinase activity (mushroom tyrosinase) [ppm]
O=c1cc(CO)occ1O [Kojic acids, reference compound] | 39.36 | –
OC[C@H]1O[C@@H](Oc2ccc(O)cc2)[C@H](O)[C@@H](O)[C@@H]1O [Arbutin, arbutin, reference compound] | – | 149
